The source of these data is paper PMC4057235, “Development and Evaluation of Small Peptidomimetic Ligands to Protease-Activated Receptor-2 (PAR2) through the Use of Lipid Tethering” (PLoS ONE, 2014).

Like-named read-outs stand apart in the source and are kept apart here. Square brackets hold non-standard residues; d marks the D form. Peptide text beside a SMILES is read from it. * marks the point of attachment. 4Thiazolecarbonyl(2-NH2) = Nc1nc(C(=O)*)cs1; Cha = N[C@@H](CC1CCCCC1)C(=O)O

In one assay the target is T1, PAR2 (Homo sapiens, UniProt P55085).
T1 construct: 16HBE14o- cells on E-plates in growth medium; endogenous in cells; host or cells: 16HBE14o- cells
T1 sequence (P55085 26-397): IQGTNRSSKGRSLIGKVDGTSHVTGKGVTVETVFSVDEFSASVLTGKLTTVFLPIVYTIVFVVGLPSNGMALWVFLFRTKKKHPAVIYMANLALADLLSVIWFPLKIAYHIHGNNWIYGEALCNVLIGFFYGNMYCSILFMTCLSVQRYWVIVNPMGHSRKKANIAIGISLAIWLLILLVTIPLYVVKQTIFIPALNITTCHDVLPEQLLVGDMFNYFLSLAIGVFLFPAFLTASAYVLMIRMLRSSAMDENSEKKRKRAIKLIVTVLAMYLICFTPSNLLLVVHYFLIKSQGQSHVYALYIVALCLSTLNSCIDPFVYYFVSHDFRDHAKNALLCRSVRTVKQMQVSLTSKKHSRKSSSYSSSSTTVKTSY
The experiment in a line: xCELLigence RTCA in vitro physiological response, 16HBE14o- cells. It is filed as cell-based. The conditions noted are these: for EC50: peak Normalized Cell Index within 4 hr. The text has this: 16HBE14o- cells, a SV40 transformed human bronchial epithelial cell line, were obtained through the California Pacific Medical Center Research Institute (San Francisco, CA, USA). Cells were maintained and expanded as previously described. Briefly, cell lines were expanded in tissue culture flasks prior to transfer to 96 well E-plates (Roche) for experiments. Flasks and 96 well E-plates were coated initially with a matrix coating solution (88% Lechner and LaVeck basal medium, 10% bovine serum albumin (BSA; from 1 mg/ml stock), 1% bovine collagen type I (from 2.9 mg/ml stock), and 1% human fibronectin (from 1 mg/ml stock solution) and incubated for 2 hr at 37°C, after which the coating solution was removed and allowed to dry for at least 1 hr. 16HBE14o- cells were plated at a concentration of 1×10^5 cells/cm^2 and grown in Eagle’s Minimal Essential Medium supplemented with 10% Fetal Bovine Serum (FBS), 2 mM glutamax, penicillin and streptomycin (growth medium) at 37°C in a 5% CO2 atmosphere. Growth medium was replaced every other day until the cells reached confluence (5–7 days). Cells were then transferred to 96 well E-plates for RTCA, or collagen/fibronectin/BSA coated glass coverslips for Ca^2+ imaging experiments.
16HBE14o- cells on E-plates in growth medium and in a 37°C, 5% CO2 incubator were monitored for the establishment for relative impedance overnight every 15 min using the xCELLigence™ Real Time Cell Analyzer (RTCA, Roche), [28], [30]. When cells reached baseline impedance the next day, and prior to the experiment, the RTCA was moved to room air and temperature where full growth medium was replaced with 100μL modified Hank’s Balanced Saline Solution (HBSS) pre-warmed to 37°C. The RTCA was then allowed to come to room temperature (45–60 min) prior to ligand addition. Each well was then supplemented with 100 µL HBSS containing appropriate ligands to measure concentration response ranges in quadruplicate. Additional wells were used for vehicle controls. Relative impedance in each well was monitored every 30 sec over 4 hr. Peak responses, defined as the maximal change in Normalized Cell Index, were used to define maximal response concentrations and physiological EC50s for each ligand.

The next assay deals with T2, MrgprC11 (Mus musculus, UniProt Q8CIP3).
T2 construct: An MrgprC11 cDNA in pcDNA3.1 vector was transfected into CHO cells; expressed in transfected cells; host or cells: CHO cells, transient transfection with Lipofectamine 2000
T2 sequence (Q8CIP3 1-322): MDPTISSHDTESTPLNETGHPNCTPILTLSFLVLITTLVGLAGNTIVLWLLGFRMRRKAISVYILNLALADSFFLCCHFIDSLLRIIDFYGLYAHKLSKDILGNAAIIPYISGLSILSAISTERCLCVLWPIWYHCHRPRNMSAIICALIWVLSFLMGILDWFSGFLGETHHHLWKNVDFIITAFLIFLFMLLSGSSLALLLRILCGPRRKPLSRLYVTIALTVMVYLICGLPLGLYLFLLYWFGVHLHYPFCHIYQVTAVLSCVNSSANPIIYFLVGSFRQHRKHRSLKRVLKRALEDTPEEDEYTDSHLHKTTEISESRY
The experiment in a line: Ca2+ response in MrgprC11 transfected CHO cells. It is filed as cell-based. The procedure: CHO cells were cultured in DMEM supplemented with 10% FBS and 1% penicillin and streptomycin at 37°C in a 5% CO2 atmosphere. One day before transfection, CHO cells were plated in a 60 mm cell culture dish at a concentration of 1×10^5 cells/cm^2 and grown without antibiotics. An MrgprC11 cDNA in pcDNA3.1 vector was transfected into CHO cells using Lipofectamine™ 2000 (Invitrogen) prior to transfer to coverslips for experiments. Coverslips were coated with 0.1 mg/ml poly-D-lysine (from 2 mg/ml stock) and incubated for 1 hr at room temperature, after which the coating solution was removed and the coverslips were washed twice with double distilled water. CHO cells were seeded on coverslips at a concentration of 1×10^5 cells/cm^2 6 hr after transfection. Transfected cells were incubated for 24 hr prior to Ca^2+ imaging.
16HBE14o- cells or CHO cells were loaded with fura 2-acetomethoxyl ester (CalBiochem or Molecular Probes) for 30 min at room temperature. Cells were washed with HBSS and allowed to sit for at least 20 min prior to digital imaging. For activation and desensitization assay experiments using 16HBE14o- cells, [Ca^2+]i was measured as previously described. Experiments consisted of 20 sec of recording of cells in HBSS to determine resting [Ca^2+]i, followed by a 10 sec wash to introduce ligand and up to 10 min of recording for ligand washes required for desensitization experiments. Briefly, fura-2 fluorescence was observed on an Olympus IX70 microscope with a 40X oil immersion objective after alternating excitation between 340 and 380 nm by a 75 W Xenon lamp linked to a Delta Ram V illuminator (PTI) and a gel optic line. Intracellular Ca^2+ concentration ([Ca^2+]i) for each individual cell in the field of view was calculated by ratiometric analysis of fura-2 fluorescence using equations originally published in [31]. Individual ratios were calculated every sec throughout the experiments. [Ca^2+]i traces over time are averaged [Ca^2+]i of all cells within a field of view (80–120) and are representative of at least 3 experiments. Cells were considered activated by the ligand if their resting [Ca^2+]i was increased above a 200 nM threshold, a 2–4 fold increase above typical resting values. Percent activation graphs are determined from 3–6 experiments for each ligand concentration. Time to threshold in individual cells represent between 200–400 cells from at least 3 experiments at each ligand concentration. Ca^2+ imaging of CHO cells was similar; each ligand concentration tested included at least 3 experiments and a minimum of 200 cells analyzed during each experiment.

The next assay concerns mice. The experiment in a line: In vivo mechanical sensitivity (von Frey) after hindpaw injection. The arrangement: species or system mouse. The conditions noted are these: 15 pmoles into plantar hindpaw, 1 and 3 hr post-injection. The method, then: Male ICR mice (Harlan) or PAR2 ^-/- mice and their wild type littermates on a C57Bl/6 background weighing 25–30 grams were used for these studies. Animal protocols were approved by the Institutional Animal Care and Use Committee of The University of Arizona. Compounds were injected into the plantar surface of the hindpaw in a total volume of 25 µL using a 31-gauge needle. Compounds were diluted using sterile saline. Mechanical thresholds were determined using calibrated von Frey filaments (Stoelting Co, Wood Dale, IN) with the up-down method. The experimenter was always blinded to the treatment conditions and animals were randomized such that animals in a single experimental group were never all housed together.

A word on the EC50: it is the concentration at which the effect is half-maximal.

As to `CCCCCCCCCCCCCCCCNC(=O)COCC(=O)NCCCOCCOCCOCCCNC(=O)COCC(=O)NCCCOCCOCCOCCCNC(=O)COCC(=O)NCCCOCCOCCOCCCNC(=O)[C@H](CC(C)C)NC(=O)[C@H](CCCNC(=N)N)NC(=O)CNC(=O)[C@@H](NC(=O)[C@H](CC(C)C)NC(=O)c1csc(N)n1)[C@@H](C)CC` [Compound 1, 2at-LIGRL-PEG3-Hdc], the EC50 on PAR2 is 1.7 nM. Besides, the “Ca2+ response (% of cells)” value at MrgprC11 (1 nM) was 0%; on MrgprC11 (10 nM) it was 2.5%; on MrgprC11 (100 nM) it was 10%; at MrgprC11 (1 µM), 20%; on MrgprC11 (10 µM), 88 ± 19%. Consider `CCCCCCCCCCCCCCCCNC(=O)COCC(=O)NCCCOCCOCCOCCCNC(=O)COCC(=O)NCCCOCCOCCOCCCNC(=O)COCC(=O)NCCCOCCOCCOCCCNC(=O)[C@H](CCCNC(=N)N)NC(=O)CNC(=O)[C@@H](NC(=O)[C@H](CC(C)C)NC(=O)c1csc(N)n1)[C@@H](C)CC` [Compound 2, 2at-LIGR-PEG3-Hdc], for which the EC50 on PAR2 was found to be 2.1 nM. Also, the “Ca2+ response (% of cells)” value on MrgprC11 (100 nM) is reported as 0.5%. Regarding `CCCCCCCCCCCCCCCCNC(=O)COCC(=O)NCCCOCCOCCOCCCNC(=O)COCC(=O)NCCCOCCOCCOCCCNC(=O)COCC(=O)NCCCOCCOCCOCCCNC(=O)CNC(=O)[C@@H](NC(=O)[C@H](CC(C)C)NC(=O)c1csc(N)n1)[C@@H](C)CC` [Compound 3, 2at-LIG-PEG3-Hdc], at PAR2, the 50% effective concentration (EC50) is 46 nM.

On PAR2, `CCCCCCCCCCCCCCCCNC(=O)COCC(=O)NCCCOCCOCCOCCCNC(=O)COCC(=O)NCCCOCCOCCOCCCNC(=O)COCC(=O)NCCCOCCOCCOCCCNC(=O)[C@@H](NC(=O)[C@H](CC(C)C)NC(=O)c1csc(N)n1)[C@@H](C)CC` [Compound 4, 2at-LI-PEG3-Hdc] gave an EC50 of 310 nM. For `CCCCCCCCCCCCCCCCNC(=O)COCC(=O)NCCCOCCOCCOCCCNC(=O)COCC(=O)NCCCOCCOCCOCCCNC(=O)COCC(=O)NCCCOCCOCCOCCCNC(=O)C(CC(C)C)NC(=O)c1csc(N)n1` [Compound 5, 2at-L-PEG3-Hdc], the results for the “mechanical hypersensitivity (von Frey)” value in the assay with mice and in the assay on mice (listed as 2at-L-PEG 3-Hdc) were “inactive” and “lacked efficacy”, respectively. Besides, the entries for the “RTCA response / agonism (peak Normalized Cell Index)” value at PAR2 and on PAR2 (listed as 2at-L-PEG 3-Hdc) were “eliminated ligand activity” and “eliminated in vitro activity”, respectively. For `CCCCCCCCCCCCCCCCNC(=O)COCC(=O)NCCCOCCOCCOCCCNC(=O)COCC(=O)NCCCOCCOCCOCCCNC(=O)COCC(=O)NCCCOCCOCCOCCCNC(=O)c1csc(N)n1` [Compound 6, 2at-PEG3-Hdc], the “RTCA response / agonism (peak Normalized Cell Index)” value was “eliminated ligand activity” on PAR2 and “eliminated in vitro activity” at PAR2 (listed as 2at-PEG 3-Hdc). With `CC[C@H](C)[C@H](NC(=O)[C@H](CC1CCCCC1)NC(=O)c1csc(N)n1)C(=O)NCC(=O)N[C@@H](CCCNC(=N)N)C(N)=O` [Compound 7, 2at-Cha-IGR-NH2] ({4Thiazolecarbonyl(2-NH2)}-[Cha]IGR-NH2), on PAR2, a half-maximal response (EC50) required 490 nM. At PAR2, `CC[C@H](C)[C@H](NC(=O)[C@H](CC1CCCCC1)NC(=O)c1csc(N)n1)C(N)=O` [Compound 9, 2at-Cha-I-NH2] came in with an EC50 of 1100 nM.

Regarding `CCCCCCCCCCCCCCCCNC(=O)COCC(=O)NCCCOCCOCCOCCCNC(=O)COCC(=O)NCCCOCCOCCOCCCNC(=O)[C@H](CCCNC(=N)N)NC(=O)CNC(=O)[C@@H](NC(=O)[C@H](CC1CCCCC1)NC(=O)c1csc(N)n1)[C@@H](C)CC` [Compound 11, 2at-Cha-IGR-PEG2-Hdc], at PAR2, the EC50 came to 16 nM. Compound `CCCCCCCCCCCCCCCCNC(=O)COCC(=O)NCCCOCCOCCOCCCNC(=O)COCC(=O)NCCCOCCOCCOCCCNC(=O)[C@H](CCCNC(=N)N)NC(=O)CNC(=O)[C@@H](NC(=O)[C@H](CC1CCCCC1)NC(=O)c1ccno1)[C@@H](C)CC` [Compound 12, 5io-Cha-IGR-PEG2-Hdc] showed an EC50 on PAR2 of 6.8 nM. For `CCCCCCCCCCCCCCCCNC(=O)COCC(=O)NCCCOCCOCCOCCCNC(=O)COCC(=O)NCCCOCCOCCOCCCNC(=O)[C@@H](NC(=O)[C@H](CC1CCCCC1)NC(=O)c1csc(N)n1)[C@@H](C)CC` [Compound 13, 2at-Cha-I-PEG2-Hdc], the midpoint of the response at PAR2, the EC50, lay at 86 nM. Still for that read-out and setting: then `CCCCCCCCCCCCCCCCNC(=O)COCC(=O)NCCCOCCOCCOCCCNC(=O)COCC(=O)NCCCOCCOCCOCCCNC(=O)[C@@H](NC(=O)[C@H](CC1CCCCC1)NC(=O)c1ccno1)[C@@H](C)CC` [Compound 14, 5io-Cha-I-PEG2-Hdc], with 43 nM.
